From patent US12358886B2, “Heterocyclic compounds for use in the treatment of cancer” (Artios Pharma Limited, priority 2019, dated 2025)

Each compound was assayed against Polθ protein (amino acids 2-2590) (Homo sapiens, UniProt O75417) (assay: Polθ full length enzyme potency assay (PicoGreen)). Conditions: Polθ IC50 (nM), full length N-His, C-term FLAG tagged Polθ, PicoGreen fluorescence, 12 point concentration response.
Polθ protein (amino acids 2-2590), sequence (O75417 2-2590): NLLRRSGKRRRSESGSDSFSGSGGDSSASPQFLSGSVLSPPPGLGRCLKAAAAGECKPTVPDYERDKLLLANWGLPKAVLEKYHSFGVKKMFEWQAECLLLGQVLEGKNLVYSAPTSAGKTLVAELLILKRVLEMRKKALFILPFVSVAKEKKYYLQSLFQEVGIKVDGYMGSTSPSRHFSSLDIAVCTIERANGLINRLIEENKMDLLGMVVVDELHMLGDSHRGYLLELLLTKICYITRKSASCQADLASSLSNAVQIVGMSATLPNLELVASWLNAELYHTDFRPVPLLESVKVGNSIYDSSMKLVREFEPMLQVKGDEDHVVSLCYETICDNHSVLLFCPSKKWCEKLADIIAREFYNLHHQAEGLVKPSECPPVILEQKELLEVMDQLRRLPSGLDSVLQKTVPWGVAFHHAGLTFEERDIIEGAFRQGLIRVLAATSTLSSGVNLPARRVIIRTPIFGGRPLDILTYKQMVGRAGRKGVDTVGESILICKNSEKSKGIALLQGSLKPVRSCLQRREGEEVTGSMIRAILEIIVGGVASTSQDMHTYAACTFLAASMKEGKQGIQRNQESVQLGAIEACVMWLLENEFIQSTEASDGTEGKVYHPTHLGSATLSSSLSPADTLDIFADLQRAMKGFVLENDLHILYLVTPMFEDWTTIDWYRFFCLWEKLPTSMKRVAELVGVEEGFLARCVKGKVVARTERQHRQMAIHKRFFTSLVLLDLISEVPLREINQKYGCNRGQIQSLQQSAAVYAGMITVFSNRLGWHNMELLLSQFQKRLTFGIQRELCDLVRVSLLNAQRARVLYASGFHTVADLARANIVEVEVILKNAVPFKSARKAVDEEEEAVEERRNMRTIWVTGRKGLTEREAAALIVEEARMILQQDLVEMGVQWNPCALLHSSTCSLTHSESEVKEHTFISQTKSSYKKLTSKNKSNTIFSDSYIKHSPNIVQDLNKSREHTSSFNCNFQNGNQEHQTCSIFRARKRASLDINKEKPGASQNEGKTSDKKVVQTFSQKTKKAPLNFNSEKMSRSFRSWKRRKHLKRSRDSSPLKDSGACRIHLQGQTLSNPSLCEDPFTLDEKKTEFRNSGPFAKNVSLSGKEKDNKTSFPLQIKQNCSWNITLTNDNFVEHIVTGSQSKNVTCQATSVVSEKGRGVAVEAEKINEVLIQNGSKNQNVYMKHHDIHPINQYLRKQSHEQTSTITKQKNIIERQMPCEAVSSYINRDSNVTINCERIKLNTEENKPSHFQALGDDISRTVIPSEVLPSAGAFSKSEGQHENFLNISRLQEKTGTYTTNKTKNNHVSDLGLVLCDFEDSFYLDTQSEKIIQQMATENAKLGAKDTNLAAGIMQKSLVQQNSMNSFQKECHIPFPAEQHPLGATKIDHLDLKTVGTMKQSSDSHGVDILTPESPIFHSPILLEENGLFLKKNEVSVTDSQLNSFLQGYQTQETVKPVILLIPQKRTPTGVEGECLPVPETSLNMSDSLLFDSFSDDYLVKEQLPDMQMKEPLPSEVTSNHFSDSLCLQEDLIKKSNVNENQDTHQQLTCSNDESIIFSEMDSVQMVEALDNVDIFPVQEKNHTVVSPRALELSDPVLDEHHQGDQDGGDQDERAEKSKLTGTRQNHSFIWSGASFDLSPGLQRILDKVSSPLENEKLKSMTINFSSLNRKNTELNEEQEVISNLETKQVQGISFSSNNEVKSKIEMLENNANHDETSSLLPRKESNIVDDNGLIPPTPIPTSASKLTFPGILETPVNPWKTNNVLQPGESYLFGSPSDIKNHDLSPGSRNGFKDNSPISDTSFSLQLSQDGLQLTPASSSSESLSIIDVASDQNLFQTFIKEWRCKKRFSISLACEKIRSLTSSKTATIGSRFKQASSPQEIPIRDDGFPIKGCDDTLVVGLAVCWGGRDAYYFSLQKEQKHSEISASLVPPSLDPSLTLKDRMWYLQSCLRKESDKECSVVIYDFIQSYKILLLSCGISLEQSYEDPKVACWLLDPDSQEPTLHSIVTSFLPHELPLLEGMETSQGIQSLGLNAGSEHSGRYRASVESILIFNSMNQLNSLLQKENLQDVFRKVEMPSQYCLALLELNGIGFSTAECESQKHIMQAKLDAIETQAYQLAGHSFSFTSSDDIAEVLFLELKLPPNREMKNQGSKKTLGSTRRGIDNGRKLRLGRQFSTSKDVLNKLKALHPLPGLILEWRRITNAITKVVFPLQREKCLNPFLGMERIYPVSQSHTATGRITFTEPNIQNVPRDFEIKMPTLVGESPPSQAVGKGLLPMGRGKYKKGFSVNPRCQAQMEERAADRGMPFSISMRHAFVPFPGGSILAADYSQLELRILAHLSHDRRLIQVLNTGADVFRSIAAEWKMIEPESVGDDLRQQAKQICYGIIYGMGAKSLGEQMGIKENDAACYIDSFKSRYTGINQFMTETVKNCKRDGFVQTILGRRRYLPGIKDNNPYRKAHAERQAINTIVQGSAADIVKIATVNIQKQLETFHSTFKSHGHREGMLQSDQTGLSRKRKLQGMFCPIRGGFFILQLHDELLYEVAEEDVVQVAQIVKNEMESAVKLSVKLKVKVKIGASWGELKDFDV
Procedure: Polθ Full Length Enzyme Potency Assay
PicoGreen assay was used to measure the ability of compounds to inhibit the activity of Polθ in vitro. […] DMSO concentration was maintained at 1% by back filling with DMSO solution. […] This was dispensed into each well of the compound plate using a VIAFLO 16 channel manual pipette (Integra) and pre-incubated at rt for 30 min. 3 μL of 2× working solution of dNTPs (40 μM) (dATP, dCTP, dGTP, dTTP; Sigma D6500, D4635, D4010, T0251) diluted in assay buffer was then added and the reaction incubated for 60 min at rt. The reaction was stopped by addition of 10 mM EDTA, 25 mM Tris pH 7.5 and 1:200 dilution of PicoGreen dye (Invitrogen P7581).

Row | Compound | IC50
1 | CCN(C(=O)[C@@H]1C[C@H](N[C@@H]2CN(C(=O)OC(C)(C)C)C[C@H]2O)CN1c1cc(C(F)(F)F)cc(C)n1)c1ccc(F)c(F)c1 (racemic) [Example 135, rac-tert-Butyl (3R,4R)-3-(((3S,5S)-5-((3,4-difluorophenyl)(ethyl)carbamoyl)-1-(6-methyl-4-(trifluoromethyl)-pyridin-2-yl)pyrrolidin-3-yl)amino)-4-hydroxypyrrolidine-1-carboxylate] | 223 nM
2 | CCN(C(=O)[C@@H]1C[C@H](N(C)[C@@H]2CN(C(=O)OC(C)(C)C)C[C@H]2O)CN1c1cc(C(F)(F)F)cc(C)n1)c1ccc(F)c(F)c1 (racemic) [Example 143, rac-tert-Butyl (3R,4R)-3-(((3S,5S)-5-((3,4-difluorophenyl)(ethyl)carbamoyl)-1-(6-methyl-4-(trifluoromethyl)pyridin-2-yl)pyrrolidin-3-yl)(methyl)amino)-4-hydroxypyrrolidine-1-carboxylate] | 409 nM
3 | Cc1cc(C(F)(F)F)cc(N2C(=O)N(CCN3CCCC3CO)C[C@H]2C(=O)N(C)c2ccc(F)c(Cl)c2)n1 (single isomer, unassigned; isomer 1) [Example 198] | 28 nM
4 | Cc1cc(C(F)(F)F)cc(N2C(=O)N(CCN3CCCC3CO)C[C@H]2C(=O)N(C)c2ccc(F)c(Cl)c2)n1 (single isomer, unassigned; isomer 2) [Example 199] | 32 nM
5 | Cc1cc(C(F)(F)F)cc(N2C(=O)N(CC3CN(C)C(=O)O3)C[C@H]2C(=O)N(C)c2ccc(F)c(Cl)c2F)n1 (single isomer, unassigned; isomer 2) [Example 230] | 16 nM
6 | CCN(C(=O)[C@H]1C[C@@H](N(C)C)CN1c1nc(C)cc(C)c1C#N)c1cccc(C)c1 (stereo in doubt) [Example 39, (2R,4R)-1-(3-Cyano-4,6-dimethylpyridin-2-yl)-4-(dimethylamino)-N-ethyl-N-(m-tolyl)pyrrolidine-2-carboxamide] | 27 nM
7 | CCN(C(=O)[C@H]1C[C@@H](NC)CN1c1nc(C)cc(C)c1C#N)c1cccc(C)c1 (stereo in doubt) [Example 43, (2R,4R)-1-(3-Cyano-4,6-dimethylpyridin-2-yl)-N-ethyl-4-(methylamino)-N-(m-tolyl)-pyrrolidine-2-carboxamide] | 221 nM
8 | CCN(C(=O)[C@H]1C[C@@H](NCCS(C)(=O)=O)CN1c1nc(C)cc(C)c1C#N)c1cccc(C)c1 (stereo in doubt) [Example 45, (2R,4R)-1-(3-Cyano-4,6-dimethylpyridin-2-yl)-N-ethyl-4-((2-(methylsulfonyl)ethyl)-amino)-N-(m-tolyl)pyrrolidine-2-carboxamide] | 85 nM
9 | CCN(C(=O)[C@H]1C[C@@H](N(C)C2CCNC2)CN1c1nc(C)cc(C)c1C#N)c1cccc(C)c1 (stereo in doubt) [Example 48, (2R,4R)-1-(3-Cyano-4,6-dimethylpyridin-2-yl)-N-ethyl-4-(methyl(pyrrolidin-3-yl)amino)-N-(m-tolyl)pyrrolidine-2-carboxamide] | 573 nM
10 | CCN(C(=O)[C@H]1C[C@@H](N2CCNCC2)CN1c1nc(C)cc(C)c1C#N)c1cccc(C)c1 (stereo in doubt) [Example 50, (2R,4R)-1-(3-Cyano-4,6-dimethylpyridin-2-yl)-N-ethyl-4-(piperazin-1-yl)-N-(m-tolyl)-pyrrolidine-2-carboxamide] | 232 nM
11 | CCN(C(=O)[C@H]1C[C@@H](N(C)C2CCN(C(C)=O)C2)CN1c1nc(C)cc(C)c1C#N)c1cccc(C)c1 (stereo in doubt) [Example 52, (2R,4R)-4-((1-Acetylpyrrolidin-3-yl)(methyl)amino)-1-(3-cyano-4,6-dimethylpyridin-2-yl)-N-ethyl-N-(m-tolyl)pyrrolidine-2-carboxamide] | 588 nM
12 | Cc1cc(C(F)(F)F)cc(N2C(=O)[C@H](CN(C)C)C[C@@H]2C(=O)N(C)c2ccc(F)c(Cl)c2)n1 (stereo in doubt) [Example 78, (2R,4S)—N-(3-Chloro-4-fluorophenyl)-4-((dimethylamino)methyl)-N-methyl-1-(6-methyl-4-(trifluoromethyl)pyridin-2-yl)-5-oxopyrrolidine-2-carboxamide] | 48 nM
13 | Cc1cc(C(F)(F)F)cc(N2C(=O)[C@@H](CN(C)C)C[C@@H]2C(=O)N(C)c2ccc(F)c(Cl)c2)n1 (stereo in doubt) [Example 79, (2R,4R)—N-(3-Chloro-4-fluorophenyl)-4-((dimethylamino)methyl)-N-methyl-1-(6-methyl-4-(trifluoromethyl)pyridin-2-yl)-5-oxopyrrolidine-2-carboxamide] | 90 nM
14 | Cc1cc(C(F)(F)F)cc(N2C(=O)N(CC(O)CN3CCC(F)C3)C[C@H]2C(=O)N(C)c2ccc(F)c(Cl)c2F)n1 (stereo in doubt) [Example 215, (4S)—N-(3-Chloro-2,4-difluorophenyl)-1-(3-((R)-3-fluoropyrrolidin-1-yl)-2-hydroxy-propyl)-N-methyl-3-(6-methyl-4-(trifluoromethyl)pyridin-2-yl)-2-oxoimidazolidine-4-carboxamide] | 8 nM
15 | Cc1cc(C(F)(F)F)c(C#N)c(N2CCC[C@H]2C(=O)N(C)c2ccccc2)n1 [Example 1, (S)-1-(3-Cyano-6-methyl-4-(trifluoromethyl)pyridin-2-yl)-N-methyl-N-phenylpyrrolidine-2-carboxamide] | 72 nM
16 | Cc1cccc(N(C(=O)[C@@H]2CCCN2c2nc(C)cc(C(F)(F)F)c2C#N)C(C)C)c1 [Example 2, (S)-1-(3-Cyano-6-methyl-4-(trifluoromethyl)pyridin-2-yl)-N-isopropyl-N-(m-tolyl)pyrrolidine-2-carboxamide] | 9 nM
17 | Cc1cc(C)c(C#N)c(N2C[C@@H](O)C[C@H]2C(=O)N(C)c2ccc(F)c(F)c2)n1 [Example 4, (2S,4S)-1-(3-Cyano-4,6-dimethylpyridin-2-yl)-N-(3,4-difluorophenyl)-4-hydroxy-N-methylpyrrolidine-2-carboxamide] | 288 nM
18 | Cc1cc(C(F)(F)F)c(C#N)c(N2C[C@@H](O)C[C@H]2C(=O)N(C)c2ccc(F)c(C)c2)n1 [Example 6, (2S,4S)-1-(3-Cyano-6-methyl-4-(trifluoromethyl)pyridin-2-yl)-N-(4-fluoro-3-methylphenyl)-4-hydroxy-N-methylpyrrolidine-2-carboxamide] | 11 nM
19 | Cc1cc(C)c(C#N)c(N2C[C@@H](O)C[C@H]2C(=O)N(C)c2ccccc2)n1 [Example 7, (2S,4S)-1-(3-Cyano-4,6-dimethylpyridin-2-yl)-4-hydroxy-N-methyl-N-phenylpyrrolidine-2-carboxamide] | 438 nM
20 | Cc1cc(C(F)(F)F)c(C#N)c(N2C[C@@H](O)C[C@H]2C(=O)N(C)c2ccccc2)n1 [Example 8, (2S,4S)-1-(3-Cyano-6-methyl-4-(trifluoromethyl)pyridin-2-yl)-4-hydroxy-N-methyl-N-phenylpyrrolidine-2-carboxamide] | 180 nM
21 | Cc1cccc(N(C)C(=O)[C@@H]2C[C@H](O)CN2c2nc(C)cc(C)c2C#N)c1 [Example 9, (2S,4S)-1-(3-Cyano-4,6-dimethylpyridin-2-yl)-4-hydroxy-N-methyl-N-(m-tolyl)pyrrolidine-2-carboxamide] | 87 nM
22 | Cc1cc(C)c(C#N)c(N2C[C@@H](O)C[C@H]2C(=O)N(C)c2ccc(F)c(C(F)(F)F)c2)n1 [Example 10, (2S,4S)-1-(3-Cyano-4,6-dimethylpyridin-2-yl)-N-(4-fluoro-3-(trifluoromethyl)phenyl)-4-hydroxy-N-methylpyrrolidine-2-carboxamide] | 316 nM
23 | Cc1cc(C)c(C#N)c(N2C[C@@H](O)C[C@H]2C(=O)N(C)c2cccc(CF)c2)n1 [Example 11, (2S,4S)-1-(3-Cyano-4,6-dimethylpyridin-2-yl)-N-(3-(fluoromethyl)phenyl)-4-hydroxy-N-methylpyrrolidine-2-carboxamide] | 452 nM
24 | Cc1cc(C)c(C#N)c(N2C[C@@H](O)C[C@H]2C(=O)N(C)c2cccc(C(F)F)c2)n1 [Example 12, (2S,4S)-1-(3-Cyano-4,6-dimethylpyridin-2-yl)-N-(3-(difluoromethyl)phenyl)-4-hydroxy-N-methylpyrrolidine-2-carboxamide] | 710 nM
25 | Cc1cc(C)c(C#N)c(N2C[C@@H](O)C[C@H]2C(=O)N(C)c2cccc(Cl)c2)n1 [Example 13, (2S,4S)-N-(3-Chlorophenyl)-1-(3-cyano-4,6-dimethylpyridin-2-yl)-4-hydroxy-N-methylpyrrolidine-2-carboxamide] | 180 nM
26 | Cc1cc(C)c(C#N)c(N2C[C@@H](O)C[C@H]2C(=O)N(C)c2ccc(F)c(CF)c2)n1 [Example 14, (2S,4S)-1-(3-Cyano-4,6-dimethylpyridin-2-yl)-N-(4-fluoro-3-(fluoromethyl)phenyl)-4-hydroxy-N-methylpyrrolidine-2-carboxamide] | 415 nM
27 | Cc1cc(C(F)(F)F)c(C#N)c(N2C[C@@H](O)C[C@H]2C(=O)N(C)c2ccc(F)c(CF)c2)n1 [Example 15, (2S,4S)-1-(3-Cyano-6-methyl-4-(trifluoromethyl)pyridin-2-yl)-N-(4-fluoro-3-(fluoromethyl)-phenyl)-4-hydroxy-N-methyl-pyrrolidine-2-carboxamide] | 57 nM
28 | COc1cc(N(C)C(=O)[C@@H]2C[C@H](O)CN2c2nc(C)cc(C(F)(F)F)c2C#N)ccc1F [Example 16, (2S,4S)-1-(3-Cyano-6-methyl-4-(trifluoromethyl)pyridin-2-yl)-N-(4-fluoro-3-methoxyphenyl)-4-hydroxy-N-methylpyrrolidine-2-carboxamide] | 274 nM

Same assay, conditions: read-out: Polθ IC50; full length N-His, C-term FLAG tagged Polθ, PicoGreen fluorescence, 12 point concentration response

Row | Compound | IC50
29 | Cc1cc(C(F)(F)F)cc(N2C(=O)N(CC3CN(C)C(=O)O3)C[C@H]2C(=O)N(C)c2ccc(F)c(Cl)c2F)n1 (single isomer, unassigned; isomer 1) [Example 229] | 15 nM
30 | Cc1cc(C(F)(F)F)c(C#N)c(N2C[C@@H](O)C[C@H]2C(=O)N(C)c2ccc(F)c(Cl)c2)n1 [Example 5, (2S,4S)—N-(3-Chloro-4-fluorophenyl)-1-(3-cyano-6-methyl-4-(trifluoro-methyl)pyridin-2-yl)-4-hydroxy-N-methylpyrrolidine-2-carboxamide] | 16 nM
